Counter-ions that a name gives are not always drawn.
Experiments:
labeled αSN (monomeric) [1] = target: T1, labeled αSN (monomeric) (Homo sapiens, UniProt P37840, S9C/T72C); assay: smFRET measurements of αSN monomer conformation; conditions: αSN labeled at 9C-72C; +20μM compound; mean ± standard deviation
T1 construct: made in house; host or cells: Escherichia coli BL21(DE3)
Protocol: (§1) SmFRET experiments were performed using two different labeled αSN constructs (residues 9–72 and residues 54–130) that report on intra-monomeric FRET (e.g., monomer conformation) of the N-terminal and C-terminal domains of αSN. […] We were not able to evaluate RO with smFRET, due to interactions of RO with the AlexaFluor-594 label.
(§2) Single-molecule FRET measurements were carried out using ~30 pM of labeled αSN in 20 mM Tris pH 7.4 and 50 mM NaCl in 8-chambered Nunc coverslips (ThermoFisher) passivated with poly(ethylene glycol) poly(L-lysine) to reduce protein adsorption to the chambers. Measurements were made on a MicroTime 200 time-resolved confocal microscope (Picoquant) as described previously. Laser power was adjusted to ~30 μW before sample illumination. Fluorescence emission was collected through the objective and passed through a 150-μm diameter pinhole. Photons were separated by an HQ585LP dichroic in combination with ET525/50M and HQ600LP filters and detected by avalanche photodiodes. Photon traces were collected in 1-ms time bins for 1 h. A cutoff of 25 counts/ms was applied to discriminate between bursts arising from fluorescently labeled protein and background noise. The FRET efficiency (Eeff) was calculated using the SymphoTime 64 software. SmFRET histograms were fit with Gaussian distributions to determine the peak Eeff values. Each measurement was carried out three times and mean Eeff values are the average and SD of these measurements (Supplementary Table 2). Alignment of instrument and analysis were verified using smFRET reference standards consisting of 10, 14, and 18 base pair dsDNA labeled with Alexa 488 and Alex 594 with their 5’ and 3’ ends.

labeled αSN (monomeric) [2] = target: T2, labeled αSN (monomeric) (Homo sapiens, UniProt P37840, E130C/T54C); assay: smFRET measurements of αSN monomer conformation; conditions: αSN labeled at 54-130C; +20μM compound; mean ± standard deviation
T2 construct: made in house; host or cells: Escherichia coli BL21(DE3)
Protocol: as §1, §2

[3] = tested on: SH-SY5Y cells transfected with unlabeled WT αSN; assay: αSN expression levels in SH-SY5Y cells (immunoblot); type: cell-based, human; conditions: 1 μM compound; relative to DMSO
Protocol: We investigated one potential MOA for compounds RO and DEM in our SH-SY5Y cytotoxicity model. These compounds might rescue αSN-induced cytotoxicity by modulating αSN expression[81],[82]. SH-SY5Y cells transfected with empty-vector or unlabeled WT αSN were treated with DMSO, RO, or DEM at 1 μM concentration. […] This effect may be due to prolonged survival of cells expressing higher levels of αSN, which would be lost in DMSO-treated samples or as a result of shifting monomer:oligomer ratios. Studies have shown that there is a fine balance in αSN expression, where too much can lead to aggregation, but αSN expression can also be neuroprotective[81],[83]–[86].
Supplemental Figure 15. Rescue of αSN-induced cytotoxicity in SH-SY5Y cells is not driven by suppression of αSN expression. One potential MOA for our hit compounds could be reduction of αSN levels, thereby alleviating the αSN induced cytotoxicity. (a) Treatment of SH-SY5Y cells expressing either αSN or […]
DMSO for both RO and DEM. (b) Quantification of a via densitometry analysis.
(1 picture or pasted object on this page, not shown here)

[4] = tested on: inter-protomeric and intra-protomeric αSN FRET biosensors in HEK293 cells; assay: Pilot HTS of the LOPAC library, fluorescence lifetime (FLT) of cellular αSN FRET biosensors; type: cell-based, human; conditions: 10 µM compound, 90 min; hit = FLT change >5 SD
Protocol: Prior to each pilot HTS, FLT and emission spectrum were measured to verify signal level, basal FRET, coefficient of variance (CV), and similarity index. For each HTS, cells were dispensed into compound plates—1536-well (10 µL/well)—and incubated with the compounds (10 µM) or dimethyl sulfoxide (DMSO; 1%) for 90 min. FLT measurements were acquired with the FLT-PR. After deconvolving the instrument response function, a single exponential fit was used to determine the FLT for both the αSN cellular FRET biosensor (τDA) and the donor-only control biosensor (τD). FRET efficiency was determined by Eq. 1. CV was determined from control plates (N = 384 wells).
Fluorescent compounds (FC) were flagged using a spectral similarity index filter, which evaluates the ratio of intensity from two bandwidths that span the donor emission spectrum and are excluded as potential false positives[45],[46],[49],[51],[66]. […] Compounds that changed FLT by >5 standard deviations (SD) were considered hits (Fig. 5, red data points).
On each day of screening, the compound plates were equilibrated to room temperature (RT; 25 °C). The cells were harvested from the 100-mm plates by incubating with TrypLE (Invitrogen) for 2 min, washed three times in PBS by centrifugation at 200 × g, and filtered using 70-μm cell strainers (BD Falcon). Cell viability prior to screen was assessed using a trypan blue assay and confirmed to be >80%. Cells were diluted to 1.5E6 cells/mL. Expression of GFP-αSN and the αSN biosensors were confirmed by fluorescence microscopy prior to each screen (EvosFL-Auto microscope, Thermo Fisher Scientific, USA). During screening, cells (50 μL/well for 384-well; 10 μL/well for 1536-well) were dispensed by a Multidrop Combi liquid dispenser (Thermo, Pittsburg, PA, USA) into the assay plates containing the compounds and allowed to incubate at RT for 90 min before recording with the FLT-PR or SUPR (both instruments manufactured by Fluorescence Innovations Inc., both owned and provided by Photonic Pharma LLC), as described previously[46].
Interfering compounds were flagged as potential false positives by a set of stringent FC filters based on spectral analysis of each well from the LOPAC screen[45],[46]. After removal of FCs, a histogram of the FLT distribution from all compounds in the screen was plotted and fit to a Gaussian curve to obtain the mean (µ) and SD (σ). A hit was defined as a compound that attenuated the FLT efficiency by >5σ relative to the mean µ (Supplementary Fig. 12).

| SMILES | Eeff (smFRET efficiency) (labeled αSN (monomeric) [1]) | Eeff (smFRET efficiency) (labeled αSN (monomeric) [2]) | total αSN expression levels [3] | identified as hit in the LOPAC screen [4] |
| --- | --- | --- | --- | --- |
| COC(=O)C1=C(C)NC(C)=C([N+](=O)[O-])C1c1ccccc1C(F)(F)F (racemic) [BAY, (±)-Bay K 8644] | 0.54 ± 0.013 | 0.58 ± 0.005 | – | – |
| Nc1ccc(-c2nc3ccc(-c4nc5ccc(N)cc5[nH]4)cc3[nH]2)cc1 [RO, Ro 90–7501] | – | – | no change | – |
| CN(C)[C@@H]1C(O)=C(C(N)=O)C(=O)[C@@]2(O)C(O)=C3C(=O)c4c(O)ccc(Cl)c4[C@@H](O)[C@H]3C[C@@H]12 [DEM, Demeclocycline HCl] | 0.55 ± 0.005 | 0.60 ± 0.008 | no change | identified |
